Laboratory results as given in US5128051A, “Method for the control of biofouling” (Union Carbide Chemicals & Plastics Technology Corporation, priority 1991, dated 1992).
≈ marks a conversion by molar mass, not a printed value. Read-outs that look alike come from different tables or passages of the source.

Legend:
[1] = test system: Aerobic Bacterial Biofilms (oil field isolate); experiment: Log reduction of sessile aerobic bacteria in biofilm on stainless steel penicylinders (Example 1, Procedure A); type: cell-based, predominantly Pseudomonas species; conditions: for log reduction at 250 ppm / log reduction at 500 ppm / log reduction at 1000 ppm / log reduction at 5 ppm / log reduction at 10 ppm / log reduction at 25 ppm / log reduction at 50 ppm: Pseudomonas; for log reduction at 5 ppm / log reduction at 10 ppm / log reduction at 25 ppm / log reduction at 50 ppm: 5.1 represents complete kill
Method: (§1) Approximately 20 ml of sterile Bacto TGE broth (Difco Labs) were placed in a sterile Petri dish (15×100 mm). To this media, 10 ml of a 24 hour culture of the aerobic organisms to be tested were added. Sterile, stainless steel penicylinders (10 mm O.D., 7 mm I.D., 10 mm long) were then placed in the inoculated media. The cylinders were placed in the dish either on-end or on-side. The Petri dish containing the cylinders was then incubated at 37° C. for 48 hours. At that time, cylinders were individually removed aseptically using forceps, blotted on sterile filter paper, and washed three times by dipping in sterile saline solution. This procedure was used to ensure that only organisms that were firmly attached in the biofilm were tested.
(§2) Two biofilm-coated cylinders were then carefully dropped into separate 10 ml test tubes containing biocide solutions of varying concentrations. After one hour and four hour contact times, a cylinder was aseptically transferred to a fresh tube of TGE broth and vortexed for 30 seconds to remove all sessile organisms. The resulting broth suspension was then serially diluted and plated using TGE agar for enumeration. Plates were incubated for 48 hours at 37° C. before counting.
(§3) To minimize error, all biocide concentration/contact time points reported below were tested in duplicate and the results averaged. Results are reported as log reduction of microorganisms compared to control cylinders treated in the same manner except that no biocide was employed.
An oil field isolate of aerobic bacteria was utilized in all aerobic biofilm experiments. This culture was taken from a water-flooded oil well in Texas and was tentatively identified as containing predominantly Pseudomonas species. The biofilms were developed following above Procedure A. Respective samples were treated with various concentrations of the biocides listed below and the number of bacteria were counted after one hour and four hours of contact.

[2] = test system: Sessile Anaerobic Bacterial Biofilms (SRB); experiment: Log reduction of sessile sulfate-reducing bacteria in biofilm on mild steel penicylinders (Example 3, Procedure B); type: cell-based; conditions: for log reduction at 100 ppm / log reduction at 250 ppm / log reduction at 10 ppm / log reduction at 25 ppm / log reduction at 50 ppm: 4 represents complete kill; for concentration required to achieve the same level of effectiveness as OPA: SRB biofilm, compared with OPA 10 ppm, 4 hours
Method: SRB-containing media were prepared as follows:
14.5 g of Bacto Sulfate API Broth (Difco Labs) and 2.0 g Bacto Agar (Difco Labs) were added to 1000 ml distilled water. The solution was heated and stirred until all components were dissolved. A 1% solution of sodium thioglycollate in distilled water was also prepared. Both solutions were then autoclaved at 121° C. for 30 minutes. After cooling, 5 g of the sodium thioglycollate solution was added to the media mixture.
Mild steel penicylinders (10 mm O.D., 7 mm I.D., 10 mm long) were cleaned by soaking for 10 minutes in 0.5% hydrochloric acid. Cylinders were then rinsed three times with distilled water and dried before use.
A 4 oz screw-capped bottle was purged with argon to remove oxygen, capped and then autoclaved. After cooling, 100 ml of sterile SRB media was added to this bottle. Cleaned penicylinders were then added along with 10 ml of a five day old SRB culture. All operations were conducted under a constant stream of argon to minimize oxygen levels. The bottle was then incubated for 7-14 days (depending on the SRB used) at 37° C. At that time, cylinders were individually removed aseptically using forceps and blotted on sterile filter paper.
Two biofilm-coated cylinders were then carefully dropped into separate 10 ml test tubes of deaerated biocide solutions of varying concentrations. All of the biocide and control solutions contained 30 ppm of a non-ionic nonyl phenol ethoxylate surfactant (TERGITOL® NP-4, Union Carbide Chemicals and Plastics Company Inc., Danbury, CT). After one hour and four hour contact times, a cylinder was removed, blotted on sterile filter paper, and placed into a commercially available SRB vial (C&S Laboratories, Tulsa, OK). The vial was then sonicated (Bransonic Model 12) for 30 seconds to remove sessile organisms. The resulting solution was serially diluted into additional SRB vials for enumeration. Vials were grown for 28 days at 37° C. before reading. Blackening of the vials was used as an indication of growth.
as §3
A SRB culture was obtained from a water-flooded oil well in Alaska. The bacteria were then cultivated on the walls of the steel penicylinders using Procedure B described above. Respective samples were then contacted with glutaraldehyde, formaldehyde or OPA for one and four hours with the following results: […]

[3] = test system: sessile microorganisms; conditions: Pope et al.; cited from earlier work
[4] = test system: P. aerug.; conditions: planktonic; cited from earlier work
[5] = test system: S. aureus; conditions: planktonic; cited from earlier work
[6] = test system: Aerobic Bacterial Biofilms; experiment: Log reduction of sessile microorganisms in aerobic biofilm (Example 2, Procedure A); type: cell-based, predominantly Pseudomonas species; conditions: for log reduction at 50 ppm / log reduction at 100 ppm / log reduction at 200 ppm: Pseudomonas, 7.4 represents complete kill
Method: as §1, §2, §3
Respective samples of the five compounds were tested against the sessile microorganisms embedded in biofilms. The biofilm was comprised of a variety of microorganisms, but contained predominantly Pseudomonas species cultivated using Procedure A. The number of organisms were counted after one hour and four hours of contact.

[7] = test system: C. albic.; conditions: planktonic; cited from earlier work
[8] = test system: K. pneum.; conditions: planktonic; cited from earlier work
[9] = test system: P. vulg.; conditions: planktonic; cited from earlier work
[10] = test system: Planktonic Anaerobic Bacteria (SRB); experiment: Log reduction of planktonic sulfate-reducing bacteria (Example 4, Procedure C); type: cell-based
Method: A stock culture of the SRB to be tested was grown in a commercial SRB vial for 4 days at 37° C. The vial was then purged for approximately 30 seconds with argon to remove excess hydrogen sulfide. At that time a series of SRB vials were each inoculated with 0.1 ml of this stock culture. These vials were then incubated at 37° C. for 4 days. Each of these vials was then purged with argon. Appropriate stock solutions of biocide were prepared so that additions of 0.1-1.0 ml provided the desired concentration of biocide in each SRB vial. After 1 hour and 4 hour contact times, 1 ml aliquots were removed from each vial and were injected into fresh SRB vials. These vials were then serially diluted for enumeration.
as §3
The same sample of planktonic SRB as used in Example 3 was cultivated following above Procedure C. Respective samples of bacteria were treated with varying concentrations of OPA and the log reduction in the number of bacteria was recorded in each case.

[11] = Solubility in water; type: physicochemical; conditions: 25° C., read-out: limit of solubility in water
[12] = test system: biofilm deposits; conditions: dynamic laboratory reactors, waterflood pipeline conditions; Eagar et al.; cited from earlier work
[13] = 1 h, read-out: log reduction after 1 hr
[14] = 4 h, read-out: log reduction after 4 hr
[15] = 1 hr contact, read-out: log reduction after 1 hr
[16] = 4 hr contact, read-out: log reduction after 4 hr

C=O [FA, formaldehyde]
log reduction at 250 ppm [1, 13]: 2
log reduction at 500 ppm [1, 13]: 2.6
log reduction at 1000 ppm [1, 13]: 5.1
log reduction at 250 ppm [1, 14]: 5.1
log reduction at 500 ppm [1, 14]: 5.1
log reduction at 1000 ppm [1, 14]: 5.1
log reduction at 100 ppm [2, 15]: < 2
log reduction at 100 ppm [2, 16]: < 2
log reduction at 250 ppm [2, 15]: < 2
log reduction at 250 ppm [2, 16]: 3
concentration required to achieve the same level of effectiveness as OPA [2]: Significantly higher concentrations
performance in tests [3]: performed well in one test but poorly in another test

O=Cc1ccccc1O [SA, salicylaldehyde]
MIC [4]: 0.25 mMole %
MIC [5]: 0.25 mMole %
log reduction at 50 ppm [6, 15]: 0
log reduction at 50 ppm [6, 16]: 0
log reduction at 100 ppm [6, 15]: 0
log reduction at 100 ppm [6, 16]: 0
log reduction at 200 ppm [6, 15]: 0.2
log reduction at 200 ppm [6, 16]: 0.2
MIC [7]: 0.25 mMole %
MIC [8]: 0.25 mMole %
MIC [9]: 0.25 mMole %

O=Cc1ccccc1C=O [OPA, ortho-phthalaldehyde]
log reduction at 5 ppm [1, 15]: 0.8
log reduction at 5 ppm [1, 16]: 5.1
log reduction at 10 ppm [1, 15]: 1.4
log reduction at 10 ppm [1, 16]: 5.1
log reduction at 25 ppm [1, 15]: 5.1
log reduction at 25 ppm [1, 16]: 5.1
effectiveness versus glutaraldehyde and formaldehyde ([1]; aerobic biofilm, Example 1): outperformed both glutaraldehyde and formaldehyde
log reduction at 10 ppm [2, 15]: 3
log reduction at 10 ppm [2, 16]: 4
log reduction at 25 ppm [2, 15]: 3
log reduction at 25 ppm [2, 16]: 4
log reduction at 50 ppm [2, 15]: 4
log reduction at 50 ppm [2, 16]: 4
MBC ([2]; Example 3, read-out: OPA concentrations at which a complete kill of sessile microorganisms occurred (as low as)): 10 to 50 µg/mL (≈ 74.6 to 373 µM)
MBC ([2]; within 4 hours, read-out: concentration that completely kills all sessile anaerobic organisms in the biofilm): 10 µg/mL (≈ 74.6 µM)
MIC [4]: 0.25 mMole %
MIC [5]: 0.25 mMole %
log reduction at 50 ppm [6, 15]: 2.9
log reduction at 50 ppm [6, 16]: 7.4
log reduction at 100 ppm [6, 15]: 3.4
log reduction at 100 ppm [6, 16]: 7.4
log reduction at 200 ppm [6, 15]: 6
log reduction at 200 ppm [6, 16]: 7.4
effectiveness against sessile microorganisms in biofilms versus other aldehydes ([6]; other aldehydes at four times the concentration of OPA): surprising effectiveness
log reduction at 100 ppm ([10]; 1 hr contact, 4 represents complete kill, read-out: log reduction after 1 hr): 0
log reduction at 100 ppm ([10]; 4 hr contact, 4 represents complete kill, read-out: log reduction after 4 hr): 0
log reduction at 500 ppm ([10]; 500 ppm, 1 hr contact, 4 represents complete kill, read-out: log reduction after 1 hr): 2 to 3
log reduction at 250 ppm [10, 13]: 1
log reduction at 250 ppm [10, 14]: 1 to 2
MBC ([10]; Example 4, read-out: concentration for complete kill of planktonic SRB (not achieved at concentrations as high as)): > 500 µg/mL
MIC [7]: 0.25 mMole %
MIC [8]: 0.25 mMole %
MIC [9]: 0.25 mMole %
solubility [11]: ~50 mg/mL (≈ 373000 µM)

O=Cc1cccc(O)c1O [DHB, 2,3-dihydroxybenzaldehyde]
MIC [4]: 0.25 mMole %
MIC [5]: 0.25 mMole %
log reduction at 50 ppm [6, 15]: 0
log reduction at 50 ppm [6, 16]: 0
log reduction at 100 ppm [6, 15]: 0.5
log reduction at 100 ppm [6, 16]: 0
log reduction at 200 ppm [6, 15]: 1.1
log reduction at 200 ppm [6, 16]: 0.2
MIC [7]: < 0.025 mMole %
MIC [8]: 0.05 mMole %
MIC [9]: 0.25 mMole %

O=CCCCC=O [GA, glutaraldehyde]
log reduction at 10 ppm [1, 15]: 0.1
log reduction at 10 ppm [1, 16]: 0.7
log reduction at 25 ppm [1, 15]: 0.3
log reduction at 25 ppm [1, 16]: 1.7
log reduction at 50 ppm [1, 15]: 5.1
log reduction at 50 ppm [1, 16]: 5.1
log reduction at 100 ppm [2, 15]: 3
log reduction at 100 ppm [2, 16]: 4
concentration required to achieve the same level of effectiveness as OPA [2]: Significantly higher concentrations
removing biofilm deposits and controlling number of viable organisms [12]: effective in removing biofilm deposits and controlling the number of viable organisms

O=Cc1ccccc1C(=O)O [CB, 2-carboxybenzaldehyde]
MIC [4]: 2.5 mMole %
MIC [5]: 0.5 mMole %
log reduction at 50 ppm [6, 15]: 0
log reduction at 50 ppm [6, 16]: 0
log reduction at 100 ppm [6, 15]: 0
log reduction at 100 ppm [6, 16]: 0.1
log reduction at 200 ppm [6, 15]: 0.6
log reduction at 200 ppm [6, 16]: 0.5
MIC [7]: 1.0 mMole %
MIC [8]: 2.5 mMole %
MIC [9]: 1.0 mMole %

COc1cccc(C=O)c1O [OVA, ortho-vanillin]
MIC [4]: 0.5 mMole %
MIC [5]: 0.5 mMole %
log reduction at 50 ppm [6, 15]: 0
log reduction at 50 ppm [6, 16]: 0
log reduction at 100 ppm [6, 15]: 0
log reduction at 100 ppm [6, 16]: 0
log reduction at 200 ppm [6, 15]: 0.3
log reduction at 200 ppm [6, 16]: 0.3
MIC [7]: 0.25 mMole %
MIC [8]: 0.25 mMole %
MIC [9]: 0.25 mMole %
